Experimental data reported in ChEMBL document CHEMBL4507299, “Data for DCP probe PF-04554878” (2021).

Experiments:
[1] = target: TRAF2 and NCK-interacting protein kinase (Homo sapiens) (UniProt Q9UKE5)
[2] = target: RAC-gamma serine/threonine-protein kinase (Homo sapiens) (UniProt Q9Y243)
[3] = target: Mitogen-activated protein kinase 13 (Homo sapiens) (UniProt O15264)
[4] = target: Cyclin-dependent kinase-like 2 (Homo sapiens) (UniProt Q92772)
[5] = system: Epidermal growth factor receptor (Homo sapiens), P00533 [UNDEFINED MUTATION]
Sequence of Epidermal growth factor receptor (Homo sapiens), P00533 [UNDEFINED MUTATION] (P00533 whole entry, looked up, change not shown): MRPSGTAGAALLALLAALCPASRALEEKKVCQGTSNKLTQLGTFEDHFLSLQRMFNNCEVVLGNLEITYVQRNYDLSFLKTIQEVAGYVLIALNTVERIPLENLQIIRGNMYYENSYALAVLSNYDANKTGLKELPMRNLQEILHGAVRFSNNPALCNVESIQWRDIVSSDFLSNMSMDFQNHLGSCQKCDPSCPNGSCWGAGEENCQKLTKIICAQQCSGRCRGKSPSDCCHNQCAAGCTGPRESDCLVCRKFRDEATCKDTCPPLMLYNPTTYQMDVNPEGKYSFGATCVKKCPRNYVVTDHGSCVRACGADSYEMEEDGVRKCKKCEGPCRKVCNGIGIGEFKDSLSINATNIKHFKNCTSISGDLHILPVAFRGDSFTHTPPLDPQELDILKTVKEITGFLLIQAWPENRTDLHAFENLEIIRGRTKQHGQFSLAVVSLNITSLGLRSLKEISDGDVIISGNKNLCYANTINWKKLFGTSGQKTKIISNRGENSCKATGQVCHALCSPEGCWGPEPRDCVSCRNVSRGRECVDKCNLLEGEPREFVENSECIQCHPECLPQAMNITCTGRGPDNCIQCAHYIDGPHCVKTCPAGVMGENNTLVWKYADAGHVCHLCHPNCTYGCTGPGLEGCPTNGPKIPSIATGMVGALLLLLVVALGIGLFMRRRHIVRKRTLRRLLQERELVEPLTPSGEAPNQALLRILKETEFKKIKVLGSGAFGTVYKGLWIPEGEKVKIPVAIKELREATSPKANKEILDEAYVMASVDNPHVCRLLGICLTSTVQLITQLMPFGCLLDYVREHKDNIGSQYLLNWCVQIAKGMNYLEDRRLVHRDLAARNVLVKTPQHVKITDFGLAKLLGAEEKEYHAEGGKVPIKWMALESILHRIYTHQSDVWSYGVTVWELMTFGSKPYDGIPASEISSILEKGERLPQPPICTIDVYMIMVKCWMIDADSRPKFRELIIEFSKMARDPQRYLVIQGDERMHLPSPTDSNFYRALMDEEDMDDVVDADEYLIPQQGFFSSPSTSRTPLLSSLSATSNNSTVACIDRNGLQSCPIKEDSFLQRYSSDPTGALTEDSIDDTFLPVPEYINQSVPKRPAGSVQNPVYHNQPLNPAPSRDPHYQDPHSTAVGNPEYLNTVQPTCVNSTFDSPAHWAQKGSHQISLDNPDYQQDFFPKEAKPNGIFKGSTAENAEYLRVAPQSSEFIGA

[6] = target: Histamine H3 receptor (Homo sapiens) (UniProt Q9Y5N1); conditions: Compound concentration 10.0 uM
[7] = target: Mitogen-activated protein kinase kinase kinase 11 (Homo sapiens) (UniProt Q16584)
[8] = target: SNF-related serine/threonine-protein kinase (Homo sapiens) (UniProt Q9NRH2)
[9] = system: Epidermal growth factor receptor (Homo sapiens), P00533 [UNDEFINED MUTATION]; remark: listed apart in the source
[10] = target: Homeodomain-interacting protein kinase 4 (Homo sapiens) (UniProt Q8NE63)
[11] = target: Phosphatidylinositol 5-phosphate 4-kinase type-2 beta (Homo sapiens) (UniProt P78356)
[12] = target: Serine/threonine-protein kinase D1 (Homo sapiens) (UniProt Q15139)
[13] = target: Muscarinic acetylcholine receptor M2 (Homo sapiens) (UniProt P08172); conditions: Compound concentration 10.0 uM
[14] = target: Delta-type opioid receptor (Homo sapiens) (UniProt P41143); conditions: Compound concentration 10.0 uM
[15] = target: Ribosomal protein S6 kinase alpha-6 (Homo sapiens) (UniProt Q9UK32)
Sequence of Ribosomal protein S6 kinase alpha-6 (Homo sapiens) (Q9UK32 whole entry): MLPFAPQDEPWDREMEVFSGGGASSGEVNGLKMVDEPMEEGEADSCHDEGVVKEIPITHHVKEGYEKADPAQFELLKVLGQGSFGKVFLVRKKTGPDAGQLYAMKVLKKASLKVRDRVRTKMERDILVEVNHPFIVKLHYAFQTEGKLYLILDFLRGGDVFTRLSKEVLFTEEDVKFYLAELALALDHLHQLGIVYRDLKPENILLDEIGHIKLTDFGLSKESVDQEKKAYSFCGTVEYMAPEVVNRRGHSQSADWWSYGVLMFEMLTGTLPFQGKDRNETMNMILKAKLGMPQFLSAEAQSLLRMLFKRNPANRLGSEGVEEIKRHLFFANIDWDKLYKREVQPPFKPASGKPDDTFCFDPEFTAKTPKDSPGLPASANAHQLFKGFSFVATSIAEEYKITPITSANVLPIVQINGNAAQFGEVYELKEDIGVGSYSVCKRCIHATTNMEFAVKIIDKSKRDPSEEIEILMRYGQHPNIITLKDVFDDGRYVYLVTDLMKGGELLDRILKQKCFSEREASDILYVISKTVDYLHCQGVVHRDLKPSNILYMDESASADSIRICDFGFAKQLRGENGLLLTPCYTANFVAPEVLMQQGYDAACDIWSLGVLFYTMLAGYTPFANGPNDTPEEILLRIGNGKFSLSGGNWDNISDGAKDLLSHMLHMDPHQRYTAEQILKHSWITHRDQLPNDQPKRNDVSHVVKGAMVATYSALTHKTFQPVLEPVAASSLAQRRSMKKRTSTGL

[16] = target: Muscarinic acetylcholine receptor M1 (Homo sapiens) (UniProt P11229); conditions: Compound concentration 10.0 uM
[17] = target: Hormonally up-regulated neu tumor-associated kinase (Homo sapiens) (UniProt P57058)
Sequence of Hormonally up-regulated neu tumor-associated kinase (Homo sapiens) (P57058 whole entry): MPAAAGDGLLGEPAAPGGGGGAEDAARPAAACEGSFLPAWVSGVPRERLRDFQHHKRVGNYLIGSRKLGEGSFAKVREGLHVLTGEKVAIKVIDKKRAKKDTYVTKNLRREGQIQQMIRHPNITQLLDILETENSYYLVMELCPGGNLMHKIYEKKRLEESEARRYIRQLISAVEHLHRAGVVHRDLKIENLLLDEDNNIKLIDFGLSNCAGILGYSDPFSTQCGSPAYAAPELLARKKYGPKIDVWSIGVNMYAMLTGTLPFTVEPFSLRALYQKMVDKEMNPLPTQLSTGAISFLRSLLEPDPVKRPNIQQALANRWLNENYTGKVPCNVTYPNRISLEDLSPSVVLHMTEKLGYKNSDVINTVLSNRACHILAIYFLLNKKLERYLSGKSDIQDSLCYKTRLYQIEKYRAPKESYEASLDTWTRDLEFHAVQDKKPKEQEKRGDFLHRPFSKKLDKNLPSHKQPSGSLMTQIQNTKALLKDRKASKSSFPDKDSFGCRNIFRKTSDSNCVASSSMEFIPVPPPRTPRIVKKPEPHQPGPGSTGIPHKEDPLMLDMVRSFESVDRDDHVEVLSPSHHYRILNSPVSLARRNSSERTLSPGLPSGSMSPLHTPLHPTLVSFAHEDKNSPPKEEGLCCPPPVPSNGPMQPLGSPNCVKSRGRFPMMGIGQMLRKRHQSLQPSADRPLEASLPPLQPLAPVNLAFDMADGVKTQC

[18] = target: Peripheral plasma membrane protein CASK (Homo sapiens) (UniProt O14936)
[19] = target: Serine/threonine-protein kinase MARK1 (Homo sapiens, UniProt Q9P0L2)
Sequence of Serine/threonine-protein kinase MARK1 (Q9P0L2 whole entry, looked up): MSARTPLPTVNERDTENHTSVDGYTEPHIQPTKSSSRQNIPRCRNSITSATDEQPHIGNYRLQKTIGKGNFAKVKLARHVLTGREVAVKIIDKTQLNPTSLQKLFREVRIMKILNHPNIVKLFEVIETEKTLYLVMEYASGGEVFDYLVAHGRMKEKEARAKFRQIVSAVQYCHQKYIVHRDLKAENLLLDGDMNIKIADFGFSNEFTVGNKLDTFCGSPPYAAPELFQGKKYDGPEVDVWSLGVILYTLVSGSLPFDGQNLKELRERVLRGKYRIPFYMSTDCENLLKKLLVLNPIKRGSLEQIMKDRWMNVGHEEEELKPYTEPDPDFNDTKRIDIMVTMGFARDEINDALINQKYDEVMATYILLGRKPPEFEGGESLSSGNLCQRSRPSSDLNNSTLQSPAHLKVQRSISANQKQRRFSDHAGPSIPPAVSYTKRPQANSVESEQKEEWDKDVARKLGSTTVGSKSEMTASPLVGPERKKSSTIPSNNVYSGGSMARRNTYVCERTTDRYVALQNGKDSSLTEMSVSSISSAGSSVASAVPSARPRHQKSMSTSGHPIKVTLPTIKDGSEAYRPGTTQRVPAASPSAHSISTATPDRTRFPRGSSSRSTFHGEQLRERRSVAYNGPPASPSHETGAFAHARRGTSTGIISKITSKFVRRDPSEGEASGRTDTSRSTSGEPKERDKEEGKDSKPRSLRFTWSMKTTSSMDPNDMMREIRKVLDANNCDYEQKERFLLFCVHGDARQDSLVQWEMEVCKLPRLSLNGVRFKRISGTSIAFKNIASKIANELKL

[20] = target: Cytoplasmic tyrosine-protein kinase BMX (Homo sapiens) (UniProt P51813)
[21] = system: Tyrosine-protein kinase ABL1 (Homo sapiens), P00519 [H396P]
[22] = target: Inhibitor of nuclear factor kappa-B kinase subunit alpha (Homo sapiens) (UniProt O15111)
[23] = target: Protein-tyrosine kinase 6 (Homo sapiens) (UniProt Q13882)
[24] = target: Mitogen-activated protein kinase kinase kinase kinase 4 (Homo sapiens) (UniProt O95819)
[25] = target: Ribosomal protein S6 kinase alpha-5 (Homo sapiens) (UniProt O75582)
[26] = target: Serine/threonine-protein kinase Nek3 (Homo sapiens) (UniProt P51956)
[27] = target: Casein kinase II subunit alpha' (Homo sapiens) (UniProt P19784)
[28] = target: Calcium/calmodulin-dependent protein kinase kinase 1 (Homo sapiens) (UniProt Q8N5S9)
[29] = target: Calcium-dependent protein kinase 1 (Plasmodium falciparum) (UniProt P62344)
[30] = target: LIM domain kinase 1 (Homo sapiens) (UniProt P53667)
[31] = target: Alpha-2A adrenergic receptor (Homo sapiens) (UniProt P08913); conditions: Compound concentration 10.0 uM
Sequence of Alpha-2A adrenergic receptor (Homo sapiens) (P08913 whole entry): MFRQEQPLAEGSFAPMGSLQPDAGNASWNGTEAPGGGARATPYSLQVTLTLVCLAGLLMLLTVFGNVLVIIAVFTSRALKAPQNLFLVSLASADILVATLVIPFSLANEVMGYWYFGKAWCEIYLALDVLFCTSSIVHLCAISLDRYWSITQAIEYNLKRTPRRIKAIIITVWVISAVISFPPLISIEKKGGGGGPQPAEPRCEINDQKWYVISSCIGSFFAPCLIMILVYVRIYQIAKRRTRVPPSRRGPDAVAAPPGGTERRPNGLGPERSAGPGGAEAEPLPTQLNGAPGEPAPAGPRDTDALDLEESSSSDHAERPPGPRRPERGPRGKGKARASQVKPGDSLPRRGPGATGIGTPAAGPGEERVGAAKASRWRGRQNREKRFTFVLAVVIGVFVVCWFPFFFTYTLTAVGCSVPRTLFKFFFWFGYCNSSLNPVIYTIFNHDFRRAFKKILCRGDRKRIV

[32] = target: STE20/SPS1-related proline-alanine-rich protein kinase (Homo sapiens) (UniProt Q9UEW8)
[33] = target: cAMP-dependent protein kinase catalytic subunit PRKX (Homo sapiens) (UniProt P51817)
[34] = target: Serine/threonine-protein kinase STK11 (Homo sapiens) (UniProt Q15831)
[35] = system: Receptor-type tyrosine-protein kinase FLT3 (Homo sapiens), P36888 [K663Q]
[36] = target: Serine/threonine-protein kinase Nek2 (Homo sapiens) (UniProt P51955)
[37] = target: Serine/threonine-protein kinase BRSK2 (Homo sapiens) (UniProt Q8IWQ3)
[38] = target: Calcium/calmodulin-dependent protein kinase type IV (Homo sapiens) (UniProt Q16566)
[39] = target: Mitogen-activated protein kinase 3 (Homo sapiens) (UniProt P27361)
[40] = target: Dual specificity mitogen-activated protein kinase kinase 7 (Homo sapiens) (UniProt O14733)
Sequence of Dual specificity mitogen-activated protein kinase kinase 7 (Homo sapiens) (O14733 whole entry): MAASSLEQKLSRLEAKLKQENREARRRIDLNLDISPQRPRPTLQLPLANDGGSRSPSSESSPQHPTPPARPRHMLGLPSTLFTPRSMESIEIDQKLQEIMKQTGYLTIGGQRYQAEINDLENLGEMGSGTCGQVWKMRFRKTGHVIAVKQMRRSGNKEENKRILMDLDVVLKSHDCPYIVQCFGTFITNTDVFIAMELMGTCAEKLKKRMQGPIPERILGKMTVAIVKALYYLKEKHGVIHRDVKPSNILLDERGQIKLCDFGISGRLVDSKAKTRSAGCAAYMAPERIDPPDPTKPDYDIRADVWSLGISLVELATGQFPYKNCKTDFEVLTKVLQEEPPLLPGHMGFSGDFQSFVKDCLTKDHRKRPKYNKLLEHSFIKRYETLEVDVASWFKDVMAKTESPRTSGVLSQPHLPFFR

[41] = target: Fibroblast growth factor receptor 4 (Homo sapiens) (UniProt P22455)
[42] = target: Serine/threonine-protein kinase Nek11 (Homo sapiens) (UniProt Q8NG66)
[43] = target: Ephrin type-A receptor 8 (Homo sapiens) (UniProt P29322)
[44] = target: Serine/threonine-protein kinase 24 (Homo sapiens) (UniProt Q9Y6E0)
Sequence of Serine/threonine-protein kinase 24 (Homo sapiens) (Q9Y6E0 whole entry, looked up): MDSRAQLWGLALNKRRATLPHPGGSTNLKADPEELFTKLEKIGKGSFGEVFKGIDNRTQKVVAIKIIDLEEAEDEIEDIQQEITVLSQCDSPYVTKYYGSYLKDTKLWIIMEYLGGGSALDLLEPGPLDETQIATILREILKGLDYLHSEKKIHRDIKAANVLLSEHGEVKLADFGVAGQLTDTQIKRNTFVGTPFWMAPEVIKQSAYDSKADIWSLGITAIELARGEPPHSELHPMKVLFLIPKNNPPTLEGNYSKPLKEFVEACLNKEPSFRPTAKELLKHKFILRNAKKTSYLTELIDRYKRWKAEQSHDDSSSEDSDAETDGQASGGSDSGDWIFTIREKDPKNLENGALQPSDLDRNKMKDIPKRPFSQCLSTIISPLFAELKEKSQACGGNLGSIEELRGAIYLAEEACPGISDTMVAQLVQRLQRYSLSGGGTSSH

[45] = target: Serine/threonine-protein kinase 16 (Homo sapiens) (UniProt O75716)
[46] = Compound concentration 100.0 nM
[47] = Compound concentration 1000.0 nM

`CNC(=O)c1ccc(Nc2ncc(C(F)(F)F)c(NCc3nccnc3N(C)S(C)(=O)=O)n2)cc1` [DEFACTINIB] showed a residual activity [1, 46] of 65%, a residual activity [2, 46] of 36% and a residual activity [3, 46] of 91%. It also gave a residual activity [4, 46] of 79%, a residual activity [5, 46] of 97% and an inhibition [6] of -7.94%. For the same compound, the residual activity [7, 46] was 35%, the residual activity [8, 46] was 100% and the residual activity [9, 46] was 93%. The residual activity [10, 46] was 54%, the residual activity [11, 46] was 91% and the residual activity [12, 46] was 100%. The inhibition [13] was 19.5%, the inhibition [14] was -0.28% and the residual activity [15, 46] was 70%. It also gave an inhibition [16] of 19.3%, a residual activity [17, 46] of 100% and a residual activity [18, 46] of 88%. The residual activity [19, 46] was 100%, the residual activity [20, 46] was 71% and the residual activity [21, 46] was 100%. For the same compound, the residual activity [22, 46] was 98%, the residual activity [23, 46] was 100% and the residual activity [24, 46] was 98%. The residual activity [25, 46] was 80%, the residual activity [26, 46] was 100% and the residual activity [27, 46] was 28%. For the same compound, the residual activity [28, 46] was 75%, the residual activity [29, 46] was 85% and the residual activity [30, 46] was 100%. For the same compound, the inhibition [31] was 9.61%, the residual activity [32, 46] was 100% and the residual activity [33, 46] was 95%. The residual activity [34, 46] was 100%, the residual activity [35, 46] was 21% and the residual activity [36, 46] was 75%. For the same compound, the residual activity [37, 46] was 100%, the residual activity [38, 46] was 100% and the residual activity [39, 46] was 86%. The residual activity [40, 46] was 97%, the residual activity [41, 46] was 95% and the residual activity [42, 46] was 89%. For the same compound, the residual activity [43, 46] was 87%, the residual activity [44, 46] was 54% and the residual activity [45, 46] was 7.7%.
In the case of `CN(c1ccnc(CNc2nc(Nc3ccc4c(c3)CC(=O)N4)ncc2C(F)(F)F)n1)S(C)(=O)=O` [PF-00911705], the residual activity [1, 47] is reported as 77%, the residual activity [2, 47] is reported as 100% and the residual activity [3, 47] is reported as 100%. The residual activity [4, 47] was 84%, the residual activity [5, 47] was 75% and the inhibition [6] was 12.9%. It also gave a residual activity [7, 47] of 32%, a residual activity [8, 47] of 85% and a residual activity [9, 47] of 83%. For the same compound, the residual activity [10, 47] was 35%, the residual activity [11, 47] was 4.8% and the residual activity [12, 47] was 100%. For the same compound, the inhibition [13] was -2.08%, the inhibition [14] was -6.88% and the residual activity [15, 47] was 4.6%. For the same compound, the inhibition [16] was -6.58%, the residual activity [17, 47] was 100% and the residual activity [18, 47] was 85%. The residual activity [19, 47] was 77%, the residual activity [20, 47] was 80% and the residual activity [21, 47] was 46%. It also gave a residual activity [22, 47] of 57%, a residual activity [23, 47] of 100% and a residual activity [24, 47] of 82%. For the same compound, the residual activity [25, 47] was 78%, the residual activity [26, 47] was 60% and the residual activity [27, 47] was 6.7%. It also gave a residual activity [28, 47] of 90%, a residual activity [29, 47] of 84% and a residual activity [30, 47] of 97%. It also gave an inhibition [31] of 0.4%, a residual activity [32, 47] of 100% and a residual activity [33, 47] of 15%. The residual activity [34, 47] was 72%, the residual activity [35, 47] was 16% and the residual activity [36, 47] was 83%. For the same compound, the residual activity [37, 47] was 97%, the residual activity [38, 47] was 100% and the residual activity [39, 47] was 96%. The residual activity [40, 47] was 73%, the residual activity [41, 47] was 83% and the residual activity [42, 47] was 100%. For the same compound, the residual activity [43, 47] was 100%, the residual activity [44, 47] was 93% and the residual activity [45, 47] was 1.5%.
